One assay deals with T1, Human MDM2 (HDM2) 1-116 (Homo sapiens, UniProt Q00987).
T1 construct: Human MDM2 (HDM2) 1-116
As to the kind of experiment: Fluorescence Polarization Assay 1 (MDM2/p53 peptide). It counts as binding. To be noted: FAM-labeled p53 peptide, 60 minutes. On the procedure: Fluorescence Polarization Assay 1
(§1) Human MDM2 (HDM2) 1-116 (20 μL) and FAM-labeled GGTSFAEYWNLLSP-NH2, 10 nM and 5 nM respectively in 10 mM Tris, 50 mM NaCl, 0.01% Tween20, and 1 mM DTT at pH 7.4 were dispensed into an opaque, black, 384 well plate. Compounds dissolved in DMSO were pin transferred (˜100-200 nL) to the 384 well plate containing the MDM2/p53 solution. After incubation for 60 minutes, the fluorescence polarization was read on a Molecular Devices SpectraMax plate reader equipped with a Fluorescein FP cartridge. In addition to probe alone (positive control) and probe/MDM2 (negative control), a titration of linear p53(18-26) was included on every plate as an additional control. IC50 values were fit using either Prism or Collaborative Drug Discovery.

In a further assay the target is T2, Human MDM4 (HDM4) 1-114 (Homo sapiens, UniProt O15151).
T2 construct: Human MDM4 (HDM4) 1-114
T2 sequence (O15151 1-114): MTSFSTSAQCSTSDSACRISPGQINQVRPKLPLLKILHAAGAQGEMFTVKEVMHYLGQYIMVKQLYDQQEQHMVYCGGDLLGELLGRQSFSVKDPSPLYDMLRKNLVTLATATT
Description: Fluorescence Polarization Assay 2 (MDM4/p53 peptide). Type of assay: binding. To be noted: FAM-labeled p53 peptide, 60 minutes. On the procedure:
Fluorescence Polarization Assay 2
as §1, with “MDM4 (HDM4) 1-114” for “MDM2 (HDM2) 1-116”, “GGTSFAEYWNLLSP —NH2, 20” for “GGTSFAEYWNLLSP-NH2, 10”, “(−100-200” for “(˜100-200”, “MDM4/p53” for “MDM2/p53”, “probe/MDM4” for “probe/MDM2”

Another assay deals with MOLM-13 cells. Description: Cellular Fluorescence Assay 1 (CellTiter-Glo, 72 hours). It counts as cell-based. On the procedure: Cellular Fluorescence Assay 1
(§2) MOLM-13 cells were grown in suspension in T75 flasks in RPMI medium with 10% fetal bovine serum (FBS) at 37° C. with 5% CO2. 40 μL ofMOLM-13 cells were plated into columns 1-22 of white, flat bottom, 384 well plates at a density of 1,000 cells per well in RPMI with 10% FBS. Columns 23 and 24 were filled with 40 μL of media as a positive control. 100 nL of compounds dissolved in DMSO were pin transferred into columns 3-22 of the 384 well plate. Columns 1 and 2 served as negative control wells. Plates were incubated for 72 hours at 37° C. with 5% CO2. After incubation, the cells were given 10 μL of CellTiter-Glo® (Promega®). Luminescence was read on a Molecular Devices SpectraMax i3x plate reader.

A further assay deals with MV4-11 cells. As to the kind of experiment: Cellular Fluorescence Assay 2 (CellTiter-Glo, 72 hours). Type of assay: cell-based. On the procedure:
Cellular Fluorescence Assay 2
as §2, with “MV4-11” for “MOLM-13”, “of MV4-11” for “ofMOLM-13”

In the next assay the test system is WaGa cells. Description: Cellular Fluorescence Assay 3 (CellTiter-Glo, 72 hours). Type of assay: cell-based. On the procedure: Cellular Fluorescence Assay 3
as §2, with “WaGa” for “MOLM-13”, “of WaGa” for “ofMOLM-13”

The test system of a further assay is MKL-1 cells. As to the kind of experiment: Cellular Fluorescence Assay 4 (CellTiter-Glo, 72 hours). Type of assay: cell-based. The method, then:
Cellular Fluorescence Assay 4
as §2, with “MKL-1” for “MOLM-13”, “MKL-1” for “ofMOLM-13”, “reader. In some embodiments, the cyclic peptide described herein is a cyclic peptide depicted in Table 1: […]” for “reader.”

Where a SMILES comes first, the peptide text is derived from it. [ ]: non-standard residue; d: D form. Ala(thiazol-5-yl) = N[C@@H](Cc1cncs1)C(=O)O; Phe(4-Cl) = N[C@@H](Cc1ccc(Cl)cc1)C(=O)O; Phe(4-F) = N[C@@H](Cc1ccc(F)cc1)C(=O)O; NMeF = CN[C@@H](Cc1ccccc1)C(=O)O; NMeNva = CCC[C@H](NC)C(=O)O; NMeV = CN[C@H](C(=O)O)C(C)C; hSer = N[C@@H](CCO)C(=O)O; NMeA = CN[C@@H](C)C(=O)O; dNMeA = CN[C@H](C)C(=O)O; Sar = CNCC(=O)O A value given as a limit tells only on which side of the number the result lay.

T1 sequence (Q00987 1-116): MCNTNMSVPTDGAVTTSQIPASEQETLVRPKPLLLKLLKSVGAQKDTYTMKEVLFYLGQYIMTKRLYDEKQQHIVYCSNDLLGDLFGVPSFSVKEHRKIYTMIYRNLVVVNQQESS

Take `COCC[C@@H]1NC(=O)[C@H]2CCCN2C(=O)[C@H](Cc2ccccc2)N(C)C(=O)[C@H](Cc2ccc(Cl)cc2)NC(=O)[C@H](C(C)C)N(C)C(=O)[C@H](Cc2ccc(F)cc2)NC(=O)[C@H](C)N(C)C(=O)[C@@H](C)N(C)C(=O)[C@H](Cc2cncs2)NC(=O)[C@H](C)N(C)C1=O` [compound 26] (cyclo([NMeA][Phe(4-F)][NMeV][Phe(4-Cl)][NMeF][dP][hSer](Me)[NMeA][Ala(thiazol-5-yl)][dNMeA])): the IC50 against Human MDM2 (HDM2) 1-116 was less than 25 nM; against Human MDM4 (HDM4) 1-114, 50 to 100 nM; in the assay on MOLM-13 cells it was 100 to 150 nM; with MV4-11 cells, 50 to 100 nM; in the assay with WaGa cells it was 100 to 150 nM; in the assay with MKL-1 cells, 500 to 1000 nM.

Consider `COCC[C@@H]1NC(=O)[C@H]2CCCN2C(=O)[C@H](Cc2ccccc2)N(C)C(=O)[C@H](Cc2ccc(Cl)cc2)NC(=O)[C@H](C(C)C)N(C)C(=O)[C@H](Cc2ccc(F)cc2)NC(=O)CN(C)C(=O)[C@@H](C)N(C)C(=O)[C@H](Cc2cncs2)NC(=O)[C@H](C)N(C)C1=O` [compound 27] (cyclo([NMeA][Ala(thiazol-5-yl)][dNMeA][Sar][Phe(4-F)][NMeV][Phe(4-Cl)][NMeF][dP][hSer](Me))), for which the IC50 at Human MDM2 (HDM2) 1-116 is less than 25 nM; at Human MDM4 (HDM4) 1-114 it was no less than 100 nM; in the assay with MOLM-13 cells, no less than 150 nM; in the assay on MV4-11 cells it was 100 to 150 nM; with WaGa cells, 100 to 150 nM; with MKL-1 cells, 500 to 1000 nM.

For the molecule `CCC[C@H]1C(=O)N[C@@H](Cc2ccc(F)cc2)C(=O)N(C)[C@@H](C(C)C)C(=O)N[C@@H](Cc2ccc(Cl)cc2)C(=O)N(C)[C@@H](Cc2ccccc2)C(=O)N2CCC[C@@H]2C(=O)N[C@@H](CCOC)C(=O)N(C)[C@@H](C)C(=O)N[C@@H](Cc2cncs2)C(=O)N(C)[C@H](C)C(=O)N1C` [compound 28] (cyclo([NMeA][Ala(thiazol-5-yl)][dNMeA][NMeNva][Phe(4-F)][NMeV][Phe(4-Cl)][NMeF][dP][hSer](Me))), the IC50 was less than 25 nM against Human MDM2 (HDM2) 1-116; no less than 100 nM on Human MDM4 (HDM4) 1-114; no less than 150 nM in the assay with MOLM-13 cells; 100 to 150 nM with MV4-11 cells; no less than 150 nM in the assay with WaGa cells; 1000 to 2000 nM in the assay on MKL-1 cells.
